Where two headings read alike, the source gives them in different places.
Experiments:
CHO cells [1] = format: cell-based; details: for intracellular Ca2+ levels, maximal response (ΔF/F): peptide 1 μM, vs. HBSS, at least five wells
Method: CHO cells were plated at 20.000 cells/well into black walled, clear bottom 96-well plate (Corning, Germany) and cultured one day up to 80–90% of confluence. […] TLQP-21, TLQP-62, TLQP-8, HHPD-41, HFHH-10, and LRPS-21 were diluted in HBSS solution and injected into the wells by an automated injector system. […] Depletion of Ca^2+ from the ER leads to Ca^2+ entry from outside the cell by activation of Store-Operated Channels (SOCs).

CHO cells [2] = details: ref Cassina et al., 2013; cited from earlier work
From the text: Among several bioactive peptides derived from VGF, TLQP-21 (VGF^556-576) is a 21 amino acid peptide which has been immunopurified from brain tissues ([Bartolomucci et al., 2006]). Despite many efforts to characterize the physiological effects of TLQP-21, little is known about its molecular targets. Nonetheless, adipocytes express a high affinity binding site for TLQP-21 and in these cells TLQP-21 stimulates a pro-lipolytic effect ([Possenti et al., 2012]).

[3] = test system: TLQP-21 binding sites on CHO cell membranes; assay: TLQP-21 binding assay with [125I]-YATL-23 on crude CHO cell membranes; details: competition with 1 nM [125I]-YATL-23, competitor 10 pM to 0.1 μM
Method: Binding of TLQP-21 to crude membranes (30,000 × g pellet) obtained from CHO cells was carried out using [^125I]-YATL-23 as ligand. YATL-23 was radioiodinated (specific activity, 2000 Ci/mmol) using the lactoperoxidase method ([Muccioli et al., 1998]; [Muccioli et al., 2001]) by Perkin Elmer (Milan, Italy) and purified by reverse phase high-performance liquid chromatography. For the single point binding assay, cell membranes (corresponding to 100 μg membrane protein) were incubated in triplicate at 23°C, unless otherwise noted, for 4 h under constant shaking with 0.5 nM [^125I]-YATL-23 in a final volume of 0.5 ml assay buffer (50 mM Tris, 2.5 mM EGTA, 0.002% bacitracin, 0.1% bovine serum albumin, titrated to a final pH of 7.4 with HCl). Non-specific binding was measured in parallel incubations with 1 μM unlabelled YATL-23 to displace the radioligand. Similar results were obtained using TLQP-21 to displace the radioligand. The binding reaction was terminated by the addition of ice-cold assay buffer, followed by rapid filtration through Whatman GF/B filters as previously reported ([Muccioli et al., 1998]) and the radioactivity bound to membranes was measured by a Packard auto-γ-counter. Specific binding-values were calculated as the difference obtained subtracting non-specific from total binding. Specific binding was expressed as a percentage of the total radioactivity added. […]

[4] = inhibitor 10 μM, 20 min pretreatment, then 1 μM TLQP-21

For NCCOB(c1ccccc1)c1ccccc1 [2-APB, 2-Aminoethyl diphenylborinate], the “decrement of TLQP-21 intracellular Ca2+ mobilization” value (CHO cells [1]; inhibitor 75 μM, 15 min preincubation, then 1 μM TLQP-21) was “about 79%”.
With O=C(O)CN(CCOCCOCCN(CC(=O)O)CC(=O)O)CC(=O)O [EGTA] the “decrement in TLQP-21-mediated intracellular Ca2+ mobilization” value (CHO cells [1]; chelator 1 mM, 30 min pretreatment, then 1 μM TLQP-21) was roughly 45%.
With COc1ccc(CCCOC(Cn2ccnc2)c2ccc(OC)cc2)cc1 (stereo not shown) [SKF-96365] the “decrement in TLQP-21-mediated intracellular Ca2+ mobilization” value (CHO cells [1]; [4]) was “about 36%”.
In the case of C/C=C(/C)C(=O)O[C@H]1C(C)=C2[C@H]([C@@H]1OC(=O)CCCCCCC)[C@@](C)(OC(C)=O)C[C@H](OC(=O)CCC)[C@@]1(O)[C@H]2OC(=O)[C@@]1(C)O [TG, thapsigargin], the “reduction of TLQP-21-mediated increase of intracellular Ca2+” value (CHO cells [1]; inhibitor 2 μM, 20 min preincubation, then 1 μM TLQP-21) is reported as 56%.
Compound CC(C)C[C@H](NC(=O)[C@@H](N)[C@@H](C)O)C(=O)N[C@@H](CCC(N)=O)C(=O)N1CCC[C@H]1C(=O)N1CCC[C@H]1C(=O)N[C@@H](C)C(=O)N[C@@H](CO)C(=O)N[C@@H](CO)C(=O)N[C@@H](CCCNC(=N)N)C(=O)N[C@@H](CCCNC(=N)N)C(=O)N[C@@H](CCCNC(=N)N)C(=O)N[C@@H](Cc1c[nH]cn1)C(=O)N[C@@H](Cc1ccccc1)C(=O)N[C@@H](Cc1c[nH]cn1)C(=O)N[C@@H](Cc1c[nH]cn1)C(=O)N[C@@H](C)C(=O)N[C@@H](CC(C)C)C(=O)N1CCC[C@H]1C(=O)N1CCC[C@H]1C(=O)N[C@@H](C)C(=O)N[C@@H](CCCNC(=N)N)C(=O)O [TLQP-21] has an EC50 (CHO cells [1]; CHO cells, stated as 1 μM being close to the EC50, read-out: EC50 of intracellular Ca2+ mobilization) of roughly 1 µM.
In the case of COc1ccc2c(c1)CC[C@@H]1[C@@H]2CC[C@]2(C)[C@@H](NCCCCCCN3C(=O)C=CC3=O)CC[C@@H]12 [U73122], the “reduction of TLQP-21 stimulation of intracellular Ca2+ mobilization” value (CHO cells [1]; inhibitor 10 μM, 10 min preincubation, then 1 μM TLQP-21) is reported as “about 82%”.
In the case of Cc1nnsc1C(=O)Nc1ccc(-n2nc(C(F)(F)F)cc2C(F)(F)F)cc1 [YM-58483], the “decrement in TLQP-21-mediated intracellular Ca2+ mobilization” value (CHO cells [1]; [4]) is reported as roughly 27%.
For Cyclosporine A [CsA], the “basal levels of intracellular Ca2+” value (CHO cells [1]; 2 μM, before TLQP-21) was “did not modify” and the “effect on TLQP-21 Ca2+ stimulation” value (CHO cells [1]; inhibitor 2 μM, 15 min preincubation, then 1 μM TLQP-21) was “did not affect”.
For “HFHHALPPAR [HFHH-10, 10 amino acids at the C-terminal of TLQP-21]”, the “intracellular Ca2+ levels, maximal response (ΔF/F)” value (“intracellular Ca2+ levels … (ΔF/F)” below) (CHO cells [1]; repeated at least three times) was “effectively stimulated”.
In the case of “HHPDLEAQARRAQEEADAEERRLQEQEELENYIEHVLLHRP [HHPD-41, VGF-derived peptide from processing of TLQP-62]”, the “intracellular Ca2+ levels … (ΔF/F)” value (CHO cells [1]; repeated at least three times) is reported as “ineffective”.
In the case of “LRPSHTRPAHQSFARP LHRPA [LRPS-21, scrambled control peptide with the same amino acid residues as TLQP-21]”, the “stimulation of intracellular Ca2+ in CHO cells” value (CHO cells [2]) is given as “did not stimulate”, the “inhibition of [125I]-YATL-23 binding to CHO membranes” value [3] is given as “not inhibited” and the “intracellular Ca2+ levels, maximal response” value (CHO cells [1]; peptide 1 nM–10 μM, TLQP-21 significant (P < 0.05) at 0.1 μM–10 μM, at least six wells, repeated at least three times) is given as “did not stimulate”.
In the case of “TLQPPASS [TLQP-8, 8 amino acids at the N-terminal of TLQP-21]”, the “intracellular Ca2+ levels … (ΔF/F)” value (CHO cells [1]; repeated at least three times) is reported as “slight and non-significant increase”.
In the case of “TLQPPASSRRRHFHHALPPARHHPDLEAQARRAQEEADAEERRLQEQEELENYIEHVLLHRP [TLQP-62]”, the “intracellular Ca2+ levels … (ΔF/F)” value (CHO cells [1]; repeated at least three times) is reported as “failed to stimulate any significant increase”.

Reference: paper PMC5371653, “Pharmacological and Biochemical Characterization of TLQP-21 Activation of a Binding Site on CHO Cells” (Frontiers in Pharmacology, 2017)
